Measured values from patent publication US5756491A, “Antiviral cobalt-organic compounds” (priority 1991, dated 1998).
≈ marks a conversion by molar mass, not a printed value.

Experiments:
HCMV = HCMV plaque assay; type: cell-based; conditions: Human betaherpesvirus 5, HCMV
Description: The procedure is essentially the same as for HSV analysis with the following minor changes. The agarose used for the initial overlay and the two subsequent overlays is 0.8% rather than 1%. The assay is incubated for 14 days with the additional 1 ml overlays being applied on days four and eight.
(§1) The procedure for the liquid overlay plaque assay is similar to that using the agarose overlay. The procedure for adding the virus is the same as for the regular plaque assay. The drugs are made up in a concentration to be used in MEM with 2% FBS. The drugs are not made up at 2×concentration as in previous assays but are made up at the desired concentration. For HSV-1 and HSV-2 assays, an antibody preparation obtained from Baxter Health Care Corporation is diluted 1:500 and added to the media that the drug is diluted in. For CMV and VZV, no antibody in the overlay is utilized. For the CMV assay, additional medium without new drug is added on day six and allowed to incubate for a total of 11 days. For VZV, additional media is added on day five and incubated for a total of eight days. At the end of the incubation period for all of the assays, the medium is removed, the cells washed and then stained with 0.1% crystal violet solution for ten minutes. […]
(§2) I. EC50 values were also determined for each of the viruses tested for known antiviral agents. […]

HFF cells [1] = assay: MTT assay for cell cytotoxicity; type: cell-based, human; conditions: stationary cells
Description: Twenty-four hours prior to assay, HFF cells are plated into 96 well plates at a concentration of […] cells per well. After 24 h, the media is aspirated and […] of drug is added to the first row of wells and then diluted serially 1:5 using the automated Cetus Liquid Handling System in a manner similar to that used in the CPE assay. The plates are then incubated in a CO2 incubator at 37° C. for seven days. At this time, each well receives 50 microliters of […] solution of MTT in Dulbecco's Phosphate Buffered Saline. The plates are then incubated for an additional four hours. At this time, the media is removed and replaced with 100 μl of 0.04N hydrochloric acid in isopropanol. After shaking briefly, the plates are then read on a plate reader at 550 nm.

HFF cells [2] = assay: Cell proliferation assay; type: cell-based, human; conditions: rapidly growing cells
Description: Twenty-four hours prior to assay, HFF cells are seeded in 6-well plates at a concentration of 2.5×10^4 cells per well in MEM containing 10% FBS. On the day of the assay, drugs are diluted serially in MEM containing 10% FBS at increments of 1:5 covering a range from 100 μg/ml to 0.03 μg/ml. […] The media from the wells is then aspirated and 2 ml of each drug concentration is then added to each well. The cells are then incubated in a Co2 incubator at 37° C. for 72 h. At the end of this time, the media-drug solution is removed and the cells washed. […] The cell-media mixture is then pipetted up and down vigorously to break up the cell suspension and 0.2 ml of the mixture is added to 9.8 ml of Isoton III and counted using a Coulter Counter. Each sample is counted three times with three replicate wells per sample.

HFF cells [3] = assay: Neutral red uptake toxicity; type: cell-based, human; conditions: stationary cells
HSV-1 [4] = assay: HSV-1 cytopathic effect (CPE) inhibition assay; type: cell-based; conditions: Human alphaherpesvirus 1; HSV-1, CPE
Description: (§3) Low passage human foreskin fibroblast cells were seeded into 96 well tissue culture plates 24 hours prior to use at a cell concentration of 2.5×10^4 cells per ml in 0.1 ml (MEM) supplemented with 10% fetal bovine serum (FBS). The cells were then incubated for 24 hour at 37° C. in a CO2 incubator. After incubation, the medium was removed and 100 μl of MEM containing 2% FBS was added to all but the first row. In the first row, 125 μl of experimental drug was added in triplicate wells. Medium alone was added to both cell and virus control wells. The drug in the first row of wells was then diluted serially 1:5 throughout the remaining wells by transferring 25 μl using the Cetus Liquid Handling Machine. After dilution of drug, 100 μl of the appropriate virus concentration was added to each well, excluding cell control wells which received 100 μl of MEM. For HSV-1 and HSV-2 assays, the virus concentration utilized was 1000 PFU's per well. For CMV and VZV assays, the virus concentration added was 2500 PFU per well. The plates were then incubated at 37° C. in a CO2 incubator for three days for HSV-1 and HSV-2, 10 days for VZV, or 14 days for CMV. […] The plates were allowed to dry for 24 h and then read on a Skatron Plate Reader at 620 nm.
as §2

HSV-2 = HSV-2 cytopathic effect (CPE) inhibition assay; type: cell-based; conditions: Human alphaherpesvirus 2; HSV-2, CPE
Description: as §3, §2

[5] = VZV plaque reduction assay; type: cell-based; conditions: Human alphaherpesvirus 3, V2V
Description: The procedure is essentially the same as for the HSV plaque assay described above with two exceptions:
1. After addition of the drug, the plates are incubated for ten days.
2. On days three and six an additional 1 ml overlay with equal amounts of 2×MEM and 1% agarose are added.
as §1, §2

HSV-1 [6] = assay: HSV-1 plaque reduction assay; type: cell-based; conditions: Human alphaherpesvirus 1, read-out: EC50
Description: Two days prior to use, HFF cells are plated into six well plates and incubated at 37° C. with 5% CO2 and 90% humidity. On the date of assay, the drug is made up at twice the desired concentration in 2×MEM and then serially diluted 1:5 in 2×MEM using six concentrations of drug. The initial starting concentration is usually 200 μg/ml down to 0.06 μg/ml. The virus to be used is diluted in MEM containing 10% FBS to a desired concentration which will give 20-30 plaques per well. The media is then aspirated from the wells and 0.2 ml of virus is added to each well in duplicate with 0.2 ml of media being added to drug toxicity wells. The plates are then incubated for one hour with shaking every fifteen minutes. After the incubation period, an equal amount of 1% agarose was added to a equal volume of each drug dilution. This will give final drug concentrations beginning with 100 μg/ml and ending with 0.03 μg/ml and a final agarose overlay concentration of 0.5%. The drug agarose mixture is applied to each well in 2 ml volume and the plates then incubated for three days, after which the cells were stained with a 1.5% solution of neutral red. At the end of 4-6 hr incubation period, the stain is aspirated, and plaques counted using a stereomicroscope at 1×magnification.
The procedure for the liquid overlay plaque assay is similar to that using the agarose overlay. The procedure for adding the virus is the same as for the regular plaque assay. The drugs are made up in a concentration to be used in MEM with 2% FBS. The drugs are not made up at 2×concentration as in previous assays but are made up at the desired concentration. For HSV-1 and HSV-2 assays, an antibody preparation obtained from Baxter Health Care Corporation is diluted 1:500 and added to the media that the drug is diluted in. For CMV and VZV, no antibody in the overlay is utilized. For the CMV assay, additional medium without new drug is added on day six and allowed to incubate for a total of 11 days. For VZV, additional media is added on day five and incubated for a total of eight days. At the end of the incubation period for all of the assays, the medium is removed, the cells washed and then stained with 0.1% crystal violet solution for ten minutes. The cells are then rinsed several times to remove any excess crystal violet and plaques enumerated using a stereomicroscope.
(§4) I. EC50 values were also determined for each of the viruses tested for known antiviral agents. The comparison compound was ACV for all viruses except for HCMV aherein DHPG was the comparison compound. In Table 26, these comparison EC50 values are indicated with an asterisk. In Table 27, the drug FIAU (2'-fluoro-5-iodo-arabinosyl-uracil) was used as a control.

EBV = EBV IMN assay; type: cell-based; conditions: human gammaherpesvirus 4, EBV
Description: as §4

SMILES: Nc1nc2c(ncn2COC(CO)CO)c(=O)[nH]1 [DHPG]
- EC50 (HCMV): 0.9 µg/mL (≈ 3.53 µM)

SMILES: CC1=[N+]2CC[N+]3=C(C)C=C(c4ccccc4)[O][Co-3]23([NH3+])([NH3+])[O]C(c2ccccc2)=C1.[Cl-] [Compound 64]
- toxicity IC50, MTT toxicity (HFF cells [1]): 53 MCG/ML
- toxicity IC50, cell proliferation (HFF cells [2]): 38 MCG/ML
- toxicity IC50, neutral red uptake (HFF cells [3]): 15.2 MCG/ML

SMILES: Nc1nc2c(ncn2COCCO)c(=O)[nH]1 [ACV]
- EC50 (HSV-1 [4]): 0.2 µg/mL (≈ 0.888 µM)
- EC50 (HSV-2): 0.7 µg/mL (≈ 3.11 µM)
- EC50 [5]: 3.2 µg/mL (≈ 14.2 µM)
- EC50 (HSV-1 [6]): 0.2 µg/mL (≈ 0.888 µM)
- EC50 (EBV): 5.8 µg/mL (≈ 25.8 µM)
